From ChEMBL document CHEMBL3301555, “MMV Malaria Box screening in pLDH viability assay against Plasmodium falciparum gametocytes”

Columns and labels:
Plasmodium falciparum [1] = experiment: (§1) MMV: Measure of pLDH activity as indication of parasite viability. Gametocytogenesis of 3D7 Plasmodium falciparum strain was induced in vitro and asexual parasites were depleted with N-acetylglucosamine. Gametocytes were treated with dihydroartemisinin, epoxomicin, methylene blue, primaquine, puromycin or chloroquine in 96-well plates and the pLDH activity was evaluated using a modified Makler protocol. Mosquito infectivity was measured by the standard membrane feeding assay.; type: functional; set-up: concentration or dose not given beside the values
Plasmodium falciparum [2] = experiment: as §1, with “assay. The IC50 value was extrapolated as the concentration that induced a 50% inhibition of gametocyte viability.” for “assay.”; type: functional, organism-based

Row | Structure (SMILES) | Growth Inhibition (Plasmodium falciparum [1]) | IC50 (Plasmodium falciparum [2])
1 | COc1ccc(C2c3ccc4ccccc4c3Oc3ncn(CCCN(C)C)c(=N)c32)cc1 (stereo not given) | 88.163% | 696 nM
2 | COC(=O)c1ccc(C2C3=C(O)CC(c4ccc(F)cc4)CC3=Nc3ccccc3N2C(=O)c2ccccc2)cc1 (stereo not given) | 56.5126% | 6520 nM
3 | CCOc1ccc(CN2CCN(CC(O)COc3ccc(OCC(O)CN4CCN(Cc5ccc(OCC)cc5)CC4)cc3)CC2)cc1 (stereo not given) | 89.2205% | 1340 nM
4 | O=C(NC1CCN(Cc2ccccc2)CC1)c1cc(C(=O)NC2CCN(Cc3ccccc3)CC2)cc(C(=O)NC2CCN(Cc3ccccc3)CC2)c1 | 82.7495% | 288 nM
5 | COc1ccc(C(=O)C(CCC(CNC(C)(C)C)C(=O)c2ccc(OC)cc2)CNC(C)(C)C)cc1 (stereo not given) | 56.45% | 3220 nM
6 | COc1cc(C(=O)ON=C(N)Cc2cccc3ccccc23)cc(OC)c1OC | 60.0732% | 4040 nM
7 | Oc1c(C(Nc2ccccn2)c2cccc(Oc3ccccc3)c2)ccc2cccnc12 (stereo not given) | 50.44% | 3890 nM
8 | OC(CNC1CCCCC1)Cn1c2ccc(I)cc2c2cc(I)ccc21 (stereo not given) | 78.0014% | 758 nM
9 | CC1CC2=C(CC1CNCCCN(C)C)C(C)(C)CCC2 (stereo not given) | 91.9455% | 576 nM
10 | CN(C)c1ccc(C(O)(c2ccc(N(C)C)cc2)c2ccc(N(C)C)cc2)cc1 [METHYLROSANILINE] | 76.3425% | 158 nM
